Experimental data taken from US8314082B2, “Stilbene derivatives for ADP-ribosyl cyclase inhibitors” (Industrial Cooperation Foundation Chonbuk National …, priority 2006, dated 2012).

Tests used:
[1] = tested on: 2 kidney 1 clip hypertensive rat model; assay: Systolic blood pressure in 2 kidney 1 clip hypertensive rat model; assay type: in vivo, Sprague-Dawley male rats; conditions: intraperitoneal 428 μg/200 g/d, from day 7 after surgery for 7 weeks, tail plethysmography
Description: Renovascular hypertension was produced by 2KlC Sprague-Dawley male rats (7-9 weeks old) weighing 200 to 220-g were anesthetized with ketamine (100 mg/kg, intra-peritoneally) and rumpen (5 mg/kg, intraperitoneally). The left kidney was exposed through the median abdominal incision, and the renal artery was separated from the renal vein with caution. Then, a silver clip with 0.15 mm slit was placed around the renal artery. The sham procedure was performed, including the entire surgery with the exception of arterial clipping. To examine the effect of 2,2′-DHAB in the 2KlC model, we administered it at days 7 after the surgery for 7 weeks. 2,2′-DHAB was injected intraperitoneally with 58% DMSO plus saline at a dose of 1.5 μl/g body weight (428 μg/200 g/d). Sham group and control 2KlC received DMSO plus saline treatment. The dose of injected DMSO had no side effect on blood pressure (BP) or any other parameters. Systolic blood pressure was measured by a method using tail plethysmography in conscious rats once a week, from the day prior to surgery until the day of sacrifice.

[2] = tested on: ADPR-cyclase purified partially from rat heart; assay: ADPR-cyclase activity assay, heart enzyme; assay type: biochemical; parameters: dose or concentration left out as unconfirmed
Description: (§1) FIGS. 1A and 1B show the inhibition of rat kidney ADPR-cyclase that was incubated with […] NGD^+ or e-NAD^+ in the presence of various concentrations of 4,4′-dihydrioxyazobenzene (DHAB) at 37° C. for 10 min and effects of DHAB on human CD38, rat brain, heart, spleen, and kidney ADPR-cyclase. FIGS. 1A and 1B are referred to as FIG. 1 herein.
(§2) Specific ADPR-cyclase activity was determined by measuring cyclic GDP-ribose (cGDPR) or etheno-ADP-ribose (e-cADPR) fluorometrically using NGD^+ or e-NAD^+ as a substrate [Greaff et al., Biochem. J. (2002)361:379-84]. Samples were incubated in the presence […] NGD^+ or e-NAD^+ with and without an appropriate agent in an assay buffer (25 mM HEPES, pH 7.4, 100 mM NaCl, and 0.1% Triton X-100) in a […]. The reaction mixture was incubated at 37° C. for 10 min. The reaction was stopped by adding […] trichloroacetic acid (10%). […] Fluorescence of cGDPR or e-ADPR in the solution was determined at excitation/emission wavelengths of 297/410 nm (HITACHI F-2000 fluorescence spectrophotometer). cADPR-hydrolase activity was determined by incubating cADPR with ADPR-cyclase or CD38 at 37° C. for 20 min. Hydrolysis of cADPR was analyzed by high performance liquid chromatography as described (White et al., 2000). […]

[3] = tested on: ADPR-cyclase purified partially from rat spleen; assay: ADPR-cyclase activity assay, spleen enzyme; assay type: biochemical; parameters: dose or concentration left out as unconfirmed
Description: as §1, §2

STZ diabetic mice = assay: Diabetic nephropathy in STZ diabetes mouse model; assay type: in vivo; conditions: 45 μg/kg i.p. once a day for 6 weeks, mean SE, n = 6
Description: Male mice, weighing 20 25 g, were made diabetic by a single intravenous injection of STZ (65 mg/kg body weight) in 0.05 M citrate buffer (pH 4.8). At the same day, the control mice were injected with the citrate buffer. After 2 days, induction of diabetes was confirmed by tail blood glucose level measurement by using the LifeScan One Touch glucometer (Johnson & Johnson). The diabetic mice (>16 mM blood glucose) were randomly divided into two groups; 6 mice per group treated with vehicle (0.1% DMSO in saline, 100 μl) or DHAB (45 μg/kg body weight in 0.1% DMSO in saline, 100 μl) and resveratrol (45 μg/kg body weight in 0.1% DMSO in saline, 100 μl) administered by intraperitoneal injection once a day for 6 weeks. The control mice were 6 mice per group treated with the vehicle. On day 39, the mice were detained in individual metabolic cages for 24 h for urine collection. On day 42, the mice were anesthetized with diethyl ether, and blood samples were taken from the abdominal aorta. Bilateral kidneys were rapidly removed and weighed. Urine was gravimetrically collected, and urinary albumin concentrations were determined with an enzyme-linked immunosorbent assay using a murine microalbuminuria kit (Albuwell; Exocell, Philadelphia, Pa.). Urine and serum creatinine levels were measured using the QuantiChrom Creatinine Assay Kit (BioAssay Systems, Hayward, Calif.), following the manufacturer's protocol.

rat kidney ADPR-cyclase = assay: ADPR-cyclase activity assay (cGDPR / e-ADPR fluorescence from NGD+ or e-NAD+); assay type: biochemical; conditions: various concentrations
Description: as §1
Specific ADPR-cyclase activity was determined by measuring cyclic GDP-ribose (cGDPR) or etheno-ADP-ribose (e-cADPR) fluorometrically using NGD^+ or e-NAD^+ as a substrate [Greaff et al., Biochem. J. (2002)361:379-84]. Samples were incubated in the presence of […] NGD^+ or e-NAD^+ with and without an appropriate agent in an assay buffer (25 mM HEPES, pH 7.4, 100 mM NaCl, and 0.1% Triton X-100) in a […]. The reaction mixture was incubated at 37° C. for 10 min. The reaction was stopped by adding […] trichloroacetic acid (10%). […] Fluorescence of cGDPR or e-ADPR in the solution was determined at excitation/emission wavelengths of 297/410 nm (HITACHI F-2000 fluorescence spectrophotometer). cADPR-hydrolase activity was determined by incubating cADPR with ADPR-cyclase or CD38 at 37° C. for 20 min. Hydrolysis of cADPR was analyzed by high performance liquid chromatography as described (White et al., 2000). […]

SMILES | effect on elevation of systolic blood pressure [1] | sensitivity of enzyme activity to compound [2] | sensitivity of enzyme activity to compound [3] | Urine output (STZ diabetic mice; 24 h metabolic cage) [mL/day] | Body Weight (STZ diabetic mice) [g] | Food intake (STZ diabetic mice) [g] | Plasma glucose (STZ diabetic mice) [mg/dL] | Urinary Albumin (STZ diabetic mice) [µg/day] | Water intake (STZ diabetic mice) [mL] | inhibition of generation of cGDPR and e-ADPR from NGD+ and e-NAD+ (rat kidney ADPR-cyclase)
Oc1ccccc1/N=N/c1ccccc1O [2,2′-DHAB, 2,2′-Dihydroxyazobenzene] | prevented the elevation of blood pressure | – | – | – | – | – | – | – | – | –
Oc1ccc(N=Nc2ccc(O)cc2)cc1 [4,4′-DHAB, 4,4′-Dihydroxyazobenzene] | – | insensitive | insensitive | 2.27 ± 1.80 | 22.1 ± 0.58 | 2.27 ± 0.61 | 342 ± 36.1 | 4.01 ± 3.61 | 2.00 ± 1.73 | concentration-dependent
